In patent publication US10226445B2, “Pharmaceutical preparations” (Symrise AG, priority 2013, dated 2019):

System: HGT-1 cells
Experiment: Intracellular pH / proton secretion of HGT-1 cell cultures (SNARF-1-AM dye)
Format: cell-based, human
Settings: for activation at 30 µM: 0.03 mM substance of group (a) alone; for activation at 300 µM: 0.3 mM substance of group (a) alone; for stimulation of proton secretion by 3 mM caffeine or 0.3 mM theobromine (in words): additional administration at a concentration of 0.3 mM; for induced gastric acid secretion (in words): preparations with caffeine and/or theobromine as component (b); for proton secretion in the HGT-1 cells (in words): substances of group (b), Tables 1A and 1B
Experimental: Human parietal cells, also known as human gastric tumor cell line (HGT-1), are used as cell model. These were provided by Dr. C. Laboisse (Laboratory of Pathological Anatomy, Nantes, France). The cells were cultured under standard conditions at 37° C., 5% CO2 in DMEM (Dulbecco's Modified Eagle's Medium) with 4 g/l glucose, 10% FBS, 2% L-glutamine and 1% penicillin/streptomycin. For the measurement of the intracellular proton concentration, the cells are treated with trypsin/EDTA, the viability determined by means of trypan blue staining and 100 000 cells/well seeded in black 96-well plates.
To measure the intracellular pH, the dye 1,5-carboxyseminaphthorhodafluoro acetoxymethyl ester (SNARF-1-AM) is used. The cells in the 96-well plates are washed once with Krebs-Hepes buffer (KRHP) and incubated at 37° C. and 5% CO2 for 30 min with the dye dissolved in KRHP at a concentration of 3 μM. The cells are then washed twice with KRHP and substances of group (b), for example 3 mM caffeine or 0.3 mM theobromine, alone or in combination with substances of group (a), for example, homoeriodictyol (HED) or eriodictyol or matairesinol, lariciresinol or enterolactone, are applied in volumes of 100 μl at various concentrations in phenol red-free DMEM; as additional control experiments, the abovementioned substances of group (a) are tested alone. Homoeriodictyol is dissolved in double-distilled water while eriodictyol, matairesinol, lariciresinol or enterolactone are dissolved in ethanol (EtOH). The final concentration of solvent which is added to the cells is at most 1%. The fluorescent dye is excited at a wavelength of 488 nm and the emission measured at 580 nm and 640 nm. The ratio of the fluorescence values at 580 nm to 640 nm is compared to a calibration curve from which the pH can be determined. For the calibration curve, the cells are treated with a potassium phosphate buffer of different pH values from pH 7.2-8.2 and 2 μM nigericin. Nigericin equilibrates the intracellular and extracellular pH such that the intracellular pH may be defined. The intracellular H^+ concentration is determined from the intracellular pH. The intracellular proton index (IPX) is calculated by log 2 transformation of the ratio of treated cells and untreated cells (control). […] The number of replicates specified refers to the technical replicates (tr) or the number or total replicates (n), which results from the number of technical replicates multiplied by the number of biological replicates.

[1] = 0.03 mM substance of group (a) in combination with 0.3 mM theobromine, 10 minutes
[2] = 0.03 mM substance of group (a) in combination with 3 mM caffeine, 10 minutes
[3] = 0.3 mM substance of group (a) in combination with 0.3 mM theobromine, 10 minutes
[4] = 0.3 mM substance of group (a) in combination with 3 mM caffeine, 10 minutes
[5] = Homo sapiens, HGT-1, 10 min, 10 minutes, read-out: T/C [%], percentage increase of the proton secretion compared to untreated controls

In the case of `COc1cc(C[C@H]2CO[C@H](c3ccc(O)c(OC)c3)[C@H]2CO)ccc1O` [Lariciresinol, lariciresinol], the “T/C [%], percentage increase of the proton secretion compared to untreated controls” value (shortened to “T/C [%], percentage increase”) [1] is reported as 31.73%, the “T/C [%], percentage increase” value [2] is reported as 46.40% and the “T/C [%], percentage increase” value [3] is reported as 17.55%. For the same compound, the “T/C [%], percentage increase” value [4] was 21.57%, the activation at 30 µM [5] was 6.4% and the activation at 300 µM [5] was -2.04%. For the same compound, the “stimulation of proton secretion by 3 mM caffeine or 0.3 mM theobromine (in words)” value (“stimulation of proton secretion” below) was “reduced or completely inhibited” and the “induced gastric acid secretion (in words)” value was “highest reduction or complete inhibition”.
`COc1cc(C2CC(=O)c3c(O)cc(O)cc3O2)ccc1O` (stereo not drawn) [HED, homoeriodictyol] was tested, and the “T/C [%], percentage increase” value (0.003 mM substance of group (a) in combination with 0.3 mM theobromine, 10 minutes) was 21.56%, the “T/C [%], percentage increase” value [1] was 13.79% and the “T/C [%], percentage increase” value [2] was 37.99%. The “T/C [%], percentage increase” value [3] was −16.92%, the “T/C [%], percentage increase” value [4] was 20.18% and the activation at 3 µM (Homo sapiens, HGT-1, 10 min, 0.003 mM substance of group (a) alone, 10 minutes, read-out: T/C [%], percentage increase of the proton secretion compared to untreated controls) was -8.04%. The activation at 30 µM [5] was 12.7%, the activation at 300 µM [5] was -3.66% and the “stimulation of proton secretion” value was “reduced or completely inhibited”. The “induced gastric acid secretion (in words)” value was “highest reduction or complete inhibition”.
`Cn1c(=O)c2c(ncn2C)n(C)c1=O` [Caffeine, caffeine, reference compound] was tested, and the “T/C [%], percentage increase” value (3 mM substance + 1% EtOH, 10 minutes stimulation) was 44.92% and the “proton secretion in the HGT-1 cells (in words)” value was “stimulated”.
`O=C1CC(c2ccc(O)c(O)c2)Oc2cc(O)cc(O)c21` (stereo not drawn) [Eriodictyol, eriodictyol] was tested, and the “T/C [%], percentage increase” value [1] was 23.95%, the “T/C [%], percentage increase” value [2] was 29.69% and the “T/C [%], percentage increase” value [3] was −42.86%. The “T/C [%], percentage increase” value [4] was −33.96%, the activation at 30 µM [5] was -10.8% and the activation at 300 µM [5] was -11.7%. For the same compound, the “stimulation of proton secretion” value was “reduced or completely inhibited” and the “induced gastric acid secretion (in words)” value was “highest reduction or complete inhibition”.
In the case of `COc1cc(C[C@H]2COC(=O)[C@@H]2Cc2ccc(O)c(OC)c2)ccc1O` [Matairesinol, matairesinol], the “T/C [%], percentage increase” value [1] is reported as 23.41%, the “T/C [%], percentage increase” value [2] is reported as 14.39% and the “T/C [%], percentage increase” value [3] is reported as −18.25%. For the same compound, the “T/C [%], percentage increase” value [4] was −20.43%, the activation at 30 µM [5] was -9.4% and the activation at 300 µM [5] was -31.7%. For the same compound, the “stimulation of proton secretion” value was “reduced or completely inhibited” and the “induced gastric acid secretion (in words)” value was “highest reduction or complete inhibition”.
For `O=C1OC[C@@H](Cc2cccc(O)c2)[C@@H]1Cc1cccc(O)c1` [Enterolactone, enterolactone], the “T/C [%], percentage increase” value [2] was 23.41%, the “T/C [%], percentage increase” value [4] was −18.25% and the activation at 30 µM [5] was -2.76%. For the same compound, the activation at 300 µM [5] was -27.3%, the “stimulation of proton secretion” value was “reduced or completely inhibited” and the “induced gastric acid secretion (in words)” value was “highest reduction or complete inhibition”.
With `Cn1cnc2c1c(=O)[nH]c(=O)n2C` [Theobromine, theobromine, reference compound] the “T/C [%], percentage increase” value (0.3 mM substance of group (b) + 1% EtOH, 10 minutes stimulation) was 32.11% and the “proton secretion in the HGT-1 cells (in words)” value was “stimulated”.
Compound `NCCc1c[nH]cn1` [Histamine, reference compound] has an activation at 1000 µM (Homo sapiens, HGT-1, 10 min, 1 mM substance alone, 10 minutes stimulation, read-out: T/C [%], percentage increase of the proton secretion compared to untreated controls) of 27.4%.
